Results from patent US20090018146A1, “Combination Therapy with Triterpenoid Compounds and Proteasome Inhibitors” (Research Development Corporation, priority 2005, published 2009).

Legend:
Hsp70 transcript = assay: Northern blot of Hsp70 transcript in Jurkat cells; type: cell-based, human
Excerpt: (§1) Total RNA from the control and avicin treated Jurkat T cells was made using Trizol (Invitrogen). Equal amounts of RNA were separated on form amide gels and transferred to nylon membranes (Hybond N+, Amersham) and UV cross-linked using UV Stratalinker (Stratagene). Staining the membranes with 0.03% methylene blue solution in 0.3% sodium acetate, pH 5.2, monitored equal loading. The DNA probes for Hsp70 and Hsp90 were purchased from StressGen as pUC plasmids and used according to the manufacturer's protocol. The DNA fragments were radiolabeled using a Nick Translation kit from Gibco BRL and [^32P] dCTP (Amersham). The membranes were exposed for autoradiography after hybridization using ExpressHyb (Clontech) solution at 58° C. for 1 hour and 5 washes, each of 20 minutes, with 5× SSC containing 0.1% SDS at 50° C.

Hsp90β transcript = assay: One-step RT-PCR of Hsp90β transcript in Jurkat cells; type: cell-based, human; conditions: as early as 30 minutes
Protocol: Total RNA purified using Trizol method (Invitrogen) was subjected to DNAseI (RNAase free, Sigma Chemical Co.) treatment to remove any residual DNA, followed by heat inactivation and addition of 1 mM EDTA. Absence of genomic DNA was confirmed by performing PCR using Taq DNA polymerase. About 50-100 ng of purified total RNA was used in a one-step RT-PCR reaction kit from Invitrogen in a Techne Genius machine. The samples were separated on 0.8% agarose-TBE gels and viewed by staining with ethidium bromide.
(§2) Quantitation of proteins (western) and transcripts (RT-PCR) was performed using the NIH 1.61 image software.

Hsp27 = assay: Western blot of Hsp27 protein in avicin D treated Jurkat cells; type: cell-based, human; conditions: avicin D 1 μM, 2-4 hours
Protocol: (§3) Jurkat T cells (2 μg/ml=1 μM), U-937 (4 μg/ml), MJ (5 μg/ml), and HH cells (2.5 μg/ml) were treated for 0-24 hours with the indicated concentrations of avicin D. PBLs from the patients or normal blood were treated with 5 μg/ml of avicin D for 24 hours.
(§4) At the end of treatments, cells were harvested, washed with sterile ice-cold PBS and cytoplasmic extracts (CE) were prepared by lysing the cells in CE buffer containing 10 mM Hepes-Cl pH 7.5, 10 mM KCl, 0.1 mM EDTA, 0.1 mM EGTA, 0.3% NP40, and a protease inhibitor cocktail (Sigma). After centrifugation and separating the supernatant (CE proteins), the pellet was resuspended in a buffer containing 20 mM Hepes-Cl, 400 mM NaCl, 1 mM EDTA, 1 mM EGTA, and protease inhibitor cocktail (Sigma). The nuclear protein extraction proceeded for 30 min. on ice followed by centrifugation at 14,000 rpm for 5 min at 4° C. The clear supernatant containing nuclear proteins (NE) was collected, glycerol (10%) was added, and proteins stored at −80° C. until use.
(§5) SDS-PAGE and immunoblot procedures were essentially performed as described (Sambrook, 1989). […] Protein bands were detected using the ECL chemiluminescence kit from Amersham as per the manufacturer's protocol.
as §2

Hsp90 transcript = assay: Northern blot of Hsp90 transcript in Jurkat cells; type: cell-based, human
Excerpt: as §1

Hsp70 [1] = assay: Western blot of Hsp70 in normal PBL; type: cell-based, human; conditions: PBL from a normal blood sample, 5 μg/ml, 24 hours
Protocol: as §3, §4, §5

E3α ubiquitin ligase = assay: Western blot of E3α ubiquitin ligase in Jurkat cells; type: cell-based, human; conditions: peak at one hour of treatment
Protocol: as §3, §4, §5

[2] = test system: ubiquitin-protein conjugates; assay: Western blot of ubiquitin-protein conjugates in Jurkat cells; type: cell-based, human; conditions: from around 2 hours
Protocol: as §3, §4, §5

HSF1 = assay: Western blot of HSF1 in cytoplasmic and nuclear extracts of Jurkat cells; type: cell-based, human
Protocol: as §3, §4, §5, §2

XIAP [3] = assay: Western blot of XIAP in primary PBL from Sezary syndrome patients; type: cell-based, human; conditions: 5 μg/ml, 24 hours
Protocol: as §3, §4, §5, §2

XIAP [4] = assay: Western blot of XIAP protein in Jurkat cells; type: cell-based, human
Protocol: as §3, §4
SDS-PAGE and immunoblot procedures were essentially performed as described (Sambrook, 1989). Briefly, cytoplasmic and nuclear proteins were resolved on SDS-PAGE, blotted on PVDF membranes (BioRad) and probed with various antibodies followed with anti-rabbit, anti-mouse antibody conjugated to horseradish peroxidase (HRP) from BioRad or HRP conjugated anti-goat antibody from Santa Cruz Biotechnology, corresponding to the primary antibody. Protein bands were detected using the ECL chemiluminescence kit from Amersham as per the manufacturer's protocol.
as §2

CHIP = assay: Western blot of CHIP in Jurkat cells; type: cell-based, human; conditions: same conditions as E3α
Protocol: as §3, §4, §5

Hsp70 [5] = assay: Western blot of Hsp70 in primary PBL from Sezary syndrome patients; type: cell-based, human; conditions: 5 μg/ml, 24 hours
Protocol: as §3, §4, §5, §2

[6] = test system: PBL from a normal blood sample; assay: Apoptosis in normal PBL; type: cell-based, human
Protocol: as §3

XIAP [7] = assay: Western blot of XIAP in normal PBL; type: cell-based, human; conditions: PBL from a normal blood sample, 5 μg/ml, 24 hours
Protocol: as §3, §4, §5

recombinant Hsp70 = assay: In vitro ubiquitination assay with recombinant Hsp70, his-ub and CE proteins of treated cells; type: biochemical, bovine; conditions: cytoplasmic extracts of treated vs untreated Jurkat cells
Protocol: Ubiquitination assays were performed as described (Firestein and Feuerstein, 1998) with few modifications using recombinant bovine Hsp70 and N-terminal histidine-tagged ubiquitin (his-ub). About 0.5 μg of Hsp70 and 4 μg of his-ub were incubated in a buffer containing 50 mM Tris-Cl pH 7.5, 2.5 mM MgCl2, 0.05% NP 40, 0.5 mM DTT, 5 mM ATP, 4 μM MG132, and ATP regenerating system containing 10 mM creatine phosphate, 0.1 μg/ml of creatine kinase, and about 50 μg of CE proteins. The reaction was carried out for 1 hour at 30° C. and the products were subjected to nickel agarose chromatographic purification to purify histidine-tagged proteins as per manufacturer's protocol (Qiagen). The affinity-purified proteins were prepared for SDS-PAGE and western analysis using anti-Hsp70 antibodies.

caspase 9 = assay: Western blot of caspase 9 cleavage in Jurkat cells; type: cell-based, human; conditions: 2 hours of treatment
Protocol: as §3, §4, §5

XIAP [8] = assay: Western blot of XIAP in leukemic/lymphoma cell-lines; type: cell-based, human; conditions: Jurkat, U937, MJ-1, and HH cells, 24 hours post-treatment
Protocol: Human Jurkat T cell leukemia, monocytic U937 cells, and cutaneous T-cell lymphoma (CTCL) cell lines MJ (G11) and HH were obtained from American Type Culture Collection (Rockville, Md.) and grown in RPMI 1640 medium supplemented with 10% FBS and 2 mM glutamine.
as §3
as §4, with “The nuclear protein extraction proceeded for 30 min. on ice followed by centrifugation at 14,000 rpm for 5 min at 4° C. The clear supernatant containing nuclear proteins (NE) was collected, glycerol (10%) was added, and proteins stored at −80° C. until use.” left out
as §5, §2

C=C[C@](C)(O)CC/C=C(\CO)C(=O)O[C@H]1[C@H](O)[C@@H](O)[C@H](O[C@@](C)(C=C)CC/C=C(\CO)C(=O)O[C@H]2C[C@]3(C(=O)O[C@@H]4O[C@H](CO)[C@@H](O)[C@H](O)[C@H]4O[C@@H]4O[C@@H](C)[C@H](O[C@@H]5O[C@@H](CO)[C@H](O)[C@H]5O)[C@@H](O[C@@H]5O[C@H](CO)[C@@H](O)[C@H](O)[C@H]5O)[C@H]4O)[C@H](O)C[C@]4(C)C(=CC[C@@H]5[C@@]6(C)CC[C@H](O[C@@H]7O[C@H](CO[C@@H]8O[C@H](C)[C@H](O)[C@H](O)[C@H]8O[C@@H]8OC[C@@H](O)[C@H](O)[C@H]8O)[C@@H](O)[C@H](O)[C@H]7NC(C)=O)C(C)(C)[C@@H]6CC[C@]54C)[C@@H]3CC2(C)C)O[C@@H]1C [avicin D]
increase in Hsp70 transcript (Northern blot) (Hsp70 transcript): ~1.4 fold | increase in the Hsp90β transcript (RT-PCR) (Hsp90β transcript): ~1.4 fold | increase of Hsp27 (Hsp27): 1.4 fold | increase in Hsp90 transcript (Northern blot) (Hsp90 transcript): ~2 fold | change in Hsp70 protein (Hsp70 [1]): no significant change | E3α protein level (E3α ubiquitin ligase): dramatic increase | ubiquitin-protein conjugates in cell extracts [2]: protein conjugates observed | increase in the levels of nuclear HSF1 (HSF1; 4 hours, nuclear extract, densitometric scanning): ~1.5 fold | cytoplasmic content of HSF1 protein (HSF1; cytoplasmic extract): No apparent change | decrease in XIAP protein (XIAP [3]): 30-40% | XIAP degraded (XIAP [4]; by 1 hour): ~60% | XIAP protein level (XIAP [4]; starting at 1 hour post treatment): significant decrease | levels of CHIP (CHIP): No significant change | decrease in Hsp70 protein (Hsp70 [5]): 25-35% | apoptosis [6]: resistant to apoptosis | change in XIAP protein (XIAP [7]): no significant change | in vitro ubiquitination of Hsp70 (his-ub-Hsp70 ladder) (recombinant Hsp70): stronger ladder of his-ub-Hsp70 | cleavage of caspase 9 (caspase 9): increased cleavage | XIAP protein level (XIAP [8]): significant decrease
